Measured values taken from ChEMBL document CHEMBL4411258, “Novel natural compounds from endophytic fungi with anticancer activity” (Eur J Med Chem, 2018).
Converted amounts (≈) assume the structure as drawn. Blank lines part the entries; values can stand above or below the compound they belong to.

What was measured:
[1] = Cytotoxicity against human Tca8113 cells after 72 hrs by MTT assay; format: functional, cell-based
[2] = tested on: MG-63; assay: Cytotoxicity against human MG63 cells after 72 hrs by MTT assay; format: functional, cell-based; conditions: MG-63, 72 h
[3] = tested on: A2780; assay: Cytotoxicity against human A2780 cells by MTT assay; format: functional, cell-based
[4] = tested on: BT-549; assay: Cytotoxicity against human BT549 cells after 48 hrs by neutral red dye based assay; format: functional, cell-based; conditions: BT-549, 48 h
[5] = tested on: SK-OV-3; assay: Cytotoxicity against human SKOV3 cells after 48 hrs by neutral red dye based assay; format: functional, cell-based; conditions: SK-OV-3, 48 h
[6] = tested on: HL-60; assay: Cytotoxicity against human HL60 cells by MTT assay; format: functional, cell-based
[7] = tested on: HepG2; assay: Cytotoxicity against human HepG2 cells by MTT assay; format: functional, cell-based
[8] = tested on: PC-3; assay: Cytotoxicity against human PC3 cells by MTT assay; format: functional, cell-based
[9] = tested on: L02; assay: Cytotoxicity against human L02 cells by MTS assay; format: cell-based
[10] = Inhibition of TNFalpha-induced NFkappaB (unknown origin) activation expressed in HEK293 cells preincubated for 1 hr followed by TNFalpha stimulation and measured after 1 hr by dual luciferase reporter gene assay; format: cell-based; conditions: Homo sapiens
[11] = tested on: T47D; assay: Cytotoxicity against human T47D cells after 48 hrs by MTT assay; format: functional, cell-based
[12] = tested on: MDA-MB-435; assay: Cytotoxicity against human MDA-MB-435 cells by MTT assay; format: functional, cell-based
[13] = tested on: SGC-7901; assay: Cytotoxicity against human SGC7901 cells by MTT assay; format: functional, cell-based
[14] = tested on: A549; assay: Cytotoxicity against human A549 cells by MTT assay; format: functional, cell-based
[15] = tested on: HepG2; assay: Cytotoxicity against human HepG2 cells after 72 hrs by MTT assay; format: functional, cell-based; conditions: HepG2, 72 h
[16] = tested on: MDA-MB-435; assay: Cytotoxicity against human MDA-MB-435 cells after 72 hrs by MTT assay; format: functional, cell-based; conditions: MDA-MB-435, 72 h
[17] = tested on: HCT-116; assay: Cytotoxicity against human HCT116 cells after 72 hrs by MTT assay; format: functional, cell-based; conditions: HCT-116, 72 h
[18] = Inhibition of RANKL-induced NFkappaB (unknown origin) activation expressed in mouse RAW264.7 cells preincubated for 1 hr followed by RANKL stimulation and measured after 6 hrs by luciferase reporter gene based assay; format: cell-based
[19] = tested on: SH-SY5Y; assay: Cytotoxicity against human SH-SY5Y cells by MTT assay; format: functional, cell-based
[20] = tested on: MCF7; assay: Cytotoxicity against human MCF7 cells by MTT assay; format: functional, cell-based
[21] = tested on: NB-4; assay: Cytotoxicity against human NB4 cells by MTT assay; format: functional, cell-based
[22] = tested on: A549; assay: Cytotoxicity against human A549 cells by MTS assay; format: functional, cell-based
[23] = tested on: NCI-H446; assay: Cytotoxicity against human NCI-H446 cells by MTS assay; format: functional, cell-based
[24] = tested on: HeLa; assay: Cytotoxicity against human HeLa cells by MTS assay; format: functional, cell-based
[25] = tested on: Huh-7; assay: Cytotoxicity against human HuH7 cells by MTS assay; format: functional, cell-based
[26] = Cytotoxicity against mouse LM3 cells by MTS assay; format: functional, cell-based
[27] = tested on: MCF7; assay: Cytotoxicity against human MCF7 cells by MTS assay; format: functional, cell-based
[28] = tested on: SW1990; assay: Cytotoxicity against human SW1990 cells by MTS assay; format: functional, cell-based
[29] = tested on: NCI-H187; assay: Cytotoxicity against human NCI-H187 cells by resazurin microplate assay; format: functional, cell-based
[30] = tested on: Vero; assay: Cytotoxicity against African green monkey Vero cells by resazurin microplate assay; format: cell-based; conditions: Chlorocebus sabaeus
[31] = tested on: RPMI-8226; assay: Cytotoxicity against human RPMI8226 cells after 48 hrs by MTT assay; format: functional, cell-based; conditions: RPMI-8226, 48 h
[32] = tested on: HL-60; assay: Cytotoxicity against human HL60 cells by trypan blue staining based assay; format: functional, cell-based

Structure (SMILES): C[C@@H]1CC[C@@H]2[C@@H](C)C(=O)O[C@@H]2[C@@]12C=C(CO)CC2
IC50 [1]: 10 µM
IC50 [2]: 0.055 µM

Structure (SMILES): O=C1N[C@H](Cc2ccccc2)C(=O)N[C@H]1Cc1cn([C@]23C[C@H]4C(=O)N[C@H](Cc5ccccc5)C(=O)N4[C@H]2Nc2ccccc23)c2ccccc12
IC50 [3]: 56.7 µM

Structure (SMILES): C=C(CC[C@@H](C)[C@H]1CC=C2C3=C([C@@H](O)[C@H](OC(C)=O)[C@@]21C)[C@@]1(C)C[C@@H](O)[C@H](OC(=O)CCCCCCCCCO)C(C)(C)[C@@H]1CC3)C(C)C
IC50 [4]: 1.76 µg/mL (≈ 2.57 µM)
IC50 [5]: 0.12 µg/mL (≈ 0.175 µM)

Structure (SMILES): COC1=C2c3cc(OC)cc(O)c3C(=O)O[C@]2(C)CC1=O
IC50 [6]: 75.3 µM

Structure (SMILES): CC(C)CCC[C@@H](C)[C@H]1CC[C@H]2[C@@H]3CC[C@H]4C[C@@H](O[C@@H]5O[C@H](CO)[C@@H](O)[C@H](O)[C@H]5O)CC[C@]4(C)[C@H]3CC[C@]12C
IC50 [7]: 5.5 µM
IC50 [8]: 6.1 µM
IC50 [9]: 4.7 µM

IC50 [10]: 7.11 µM
Structure (SMILES): C[C@@H]1CO[C@@]2(O)[C@@H]1C[C@]1(C)[C@@H](C)CC[C@H](O)[C@@]13O[C@@H]23

Structure (SMILES): C=CC1=CC2=CC(=O)[C@](C)(OC(=O)/C=C/C(C)=C/[C@@H](C)CCCC)C(=O)C2=CO1
IC50 [11]: 1 to 10 µM

Structure (SMILES): CC1=C[C@@H]2/C=C/C[C@H](C)/C=C(\C)C(=O)C(=O)/C=C/C(=O)[C@]23C(=O)N[C@H]2Cc4c([nH]c5ccccc45)[C@@]1(C)[C@@H]23
IC50 [12]: 4.65 µM
IC50 [13]: 5.32 µM
IC50 [14]: 8.73 µM

Structure (SMILES): O=Cc1c(O)cc(O)cc1/C=C/c1ccc(O)cc1
IC50 [15]: < 50 µM
IC50 [16]: < 50 µM
IC50 [17]: < 50 µM

Structure (SMILES): C=C(CC[C@@H](C)[C@H]1CC=C2C3=C([C@@H](O)[C@H](OC(C)=O)[C@@]21C)[C@@]1(C)C[C@@H](O)[C@H](OC(C)=O)C(C)(C)[C@@H]1CC3)C(C)C
IC50 [4]: 1.97 µg/mL (≈ 3.54 µM)
IC50 [5]: 0.16 µg/mL (≈ 0.287 µM)

IC50 [18]: 30 to 46 µM
Structure (SMILES): COC(=O)c1cc(OC)c(O)c2oc3c(c(=O)c12)[C@H](OC)O[C@@H](C)C3

Structure (SMILES): COC(=O)[C@@H]1c2c(oc3cc(CCO)cc(O)c3c2=O)C=C[C@H]1O
IC50 [14]: 5.6 µM
IC50 [19]: 4.1 µM
IC50 [8]: 2.8 µM
IC50 [20]: 6.5 µM
IC50 [21]: 2.2 µM

Structure (SMILES): O=Cc1cc(/C=C/c2cc(O)cc(O)c2C=O)ccc1O
IC50 [15]: < 50 µM
IC50 [16]: < 50 µM
IC50 [17]: < 50 µM

Structure (SMILES): COC(=O)[C@@H]1c2c(oc3cc(CO)cc(OC)c3c2=O)C=C[C@H]1O
IC50 [14]: 5.7 µM
IC50 [19]: 4.9 µM
IC50 [20]: 8.8 µM
IC50 [21]: 8.6 µM

IC50 [18]: 30 to 46 µM
Structure (SMILES): COC(=O)c1cc(O)cc2oc3c(c(=O)c12)[C@@H](OC)O[C@H](C)C3

Structure (SMILES): CO[C@@H]1CCC(=O)c2c([C@@H]3CCC(=O)c4c(O)cccc43)ccc(O)c21
IC50 [22]: 1 to 20 µM
IC50 [23]: 1 to 20 µM
IC50 [24]: 1 to 20 µM
IC50 [25]: 1 to 20 µM
IC50 [9]: 1 to 20 µM
IC50 [26]: 1 to 20 µM
IC50 [27]: 1 to 20 µM
IC50 [28]: 1 to 20 µM

Structure (SMILES): O=C1CC[C@@H](c2ccc(O)c3c2C(=O)CCC3=O)c2cccc(O)c21
IC50 [22]: 1 to 20 µM
IC50 [23]: 1 to 20 µM
IC50 [24]: 1 to 20 µM
IC50 [25]: 1 to 20 µM
IC50 [9]: 1 to 20 µM
IC50 [26]: 1 to 20 µM
IC50 [27]: 1 to 20 µM
IC50 [28]: 1 to 20 µM

Structure (SMILES): COC(=O)[C@]1(Cc2ccc(O)c(CC(C)=O)c2)OC(=O)C(O)=C1c1ccc(OC)cc1
IC50 [7]: < 10 µM
IC50 [19]: < 10 µM
IC50 [21]: < 10 µM
IC50 [9]: < 10 µM

Structure (SMILES): CCCC[C@H](C)/C=C(C)/C=C/C(=O)O[C@@]1(C)C(=O)C=C2C=C(/C=C/C(=O)O)OC=C2C1=O
IC50 [11]: 1 to 10 µM

Structure (SMILES): C/C=C/C(O)[C@@H]1OC(=O)[C@@]2(C)[C@@H]3CC[C@@H](C)C[C@H]3C=C[C@@H]12 (stereo partly drawn)
IC50 [29]: 30.5 µg/mL (≈ 105 µM)
IC50 [30]: 24.2 µg/mL (≈ 83.5 µM)

Structure (SMILES): CC(C)=C1CC[C@@]2(C)OC3=C(C[C@@H]12)C(=O)[C@]1(O)CO[C@H]3C1
IC50 [31]: 83.7 µM

Structure (SMILES): CC(C)=CC/C=C(/C)[C@H]1CC[C@@]2(C)OC3=C(C[C@@H]12)C(=O)CC[C@@H]3O
IC50 [32]: 30.6 µM

Structure (SMILES): O=C1C[C@@H](O)[C@]2(Oc3cccc4c(O)ccc(c34)O2)c2c(O)ccc(O)c21
IC50 [32]: 2.39 µM

Structure (SMILES): CC(C)(O)C(O)COc1ccc(CCO)cc1 (stereo not drawn)
IC50 [1]: 26 µM
IC50 [2]: 35 µM

Structure (SMILES): O=C1CC[C@@H](c2ccc(O)c3c2[C@@H](O)CCC3=O)c2cccc(O)c21
IC50 [22]: 1 to 20 µM
IC50 [23]: 1 to 20 µM
IC50 [24]: 1 to 20 µM
IC50 [25]: 1 to 20 µM
IC50 [9]: 1 to 20 µM
IC50 [26]: 1 to 20 µM
IC50 [27]: 1 to 20 µM
IC50 [28]: 1 to 20 µM

Structure (SMILES): COC(=O)[C@@H]1c2c(oc3cc(C)cc(OC)c3c2=O)C=C[C@H]1O
IC50 [14]: 8.2 µM
IC50 [19]: 7.8 µM
IC50 [8]: 6.9 µM
IC50 [20]: 8.4 µM
